In paper PMC6882468 (Journal of Enzyme Inhibition and Medicinal Chemistry, 2019):

Assays:
[1] = system: DNFB-induced mouse model of allergic contact dermatitis; experiment: DNFB-induced mouse model of allergic contact dermatitis (ear swelling); assay type: in vivo, Male ICR mice
Procedure: Male ICR mice (20 ± 2 g) were obtained from the Experimental Animal Centre of Anhui Medical University (Hefei, China). The mice reared in a pathogen-free setting (23 ± 2 °C, 55 ± 5% humidity) with free access to water and pelleted food throughout the experimental cycle. All experimental procedures performed in accordance with guide for the Care and Use of Laboratory Animals (National Research Council, 1996) and were approved by the Experimental Animal Ethics Committee of Anhui University of Chinese Medicine (Hefei, China). After 7 days acclimatisation, the mice were randomly divided into control group, ACD model group, dexamethasone positive control group and 20 compound groups, six in each group. The control group and the model group were given the same dose of the vehicle, the positive control group was given dexamethasone 0.5 mg/kg, and the test compound groups were given compound 5 mg/kg, all of which were given by intragastric administration and were administered once a day for 6 days. Except for the control group, the 50 µL of 1% DNFB (in acetone/olive oil 4:1) was administered to the stripped epidermis, and repeated the next day. After 6 days of drug treatment, 10 µL of 1% DNFB acetone olive oil solution was applied on both sides of the right ear to stimulate inflammation, and equivalent acetone olive oil solution was applied on the left ear for comparison. […] Calculation was carried out according to the following equations. Swelling degree (mg) = MR – ML Inhibitory rate of ear swelling (%)=((MR – ML) model – (MR – ML) treated)/(MR – ML) model ×100% MR=Average weight of the right ear slices;ML= Average weight of the left ear slices […] Dexamethasone (DEX) at a p.o. dose of 0.5 mg/kg was employed as the positive control. After the mice were sacrificed, the swelling degree and inhibition rate were calculated by weighing the same part of both ears.

COX-1 = biological target: T1, COX-1 (Ovis aries, UniProt P05979); experiment: COX-1 inhibition assay in vitro (COX Inhibitor Screening Kit, fluorometric); assay type: biochemical
T1 construct: purchased BioVision, Inc
T1 sequence (P05979 25-600): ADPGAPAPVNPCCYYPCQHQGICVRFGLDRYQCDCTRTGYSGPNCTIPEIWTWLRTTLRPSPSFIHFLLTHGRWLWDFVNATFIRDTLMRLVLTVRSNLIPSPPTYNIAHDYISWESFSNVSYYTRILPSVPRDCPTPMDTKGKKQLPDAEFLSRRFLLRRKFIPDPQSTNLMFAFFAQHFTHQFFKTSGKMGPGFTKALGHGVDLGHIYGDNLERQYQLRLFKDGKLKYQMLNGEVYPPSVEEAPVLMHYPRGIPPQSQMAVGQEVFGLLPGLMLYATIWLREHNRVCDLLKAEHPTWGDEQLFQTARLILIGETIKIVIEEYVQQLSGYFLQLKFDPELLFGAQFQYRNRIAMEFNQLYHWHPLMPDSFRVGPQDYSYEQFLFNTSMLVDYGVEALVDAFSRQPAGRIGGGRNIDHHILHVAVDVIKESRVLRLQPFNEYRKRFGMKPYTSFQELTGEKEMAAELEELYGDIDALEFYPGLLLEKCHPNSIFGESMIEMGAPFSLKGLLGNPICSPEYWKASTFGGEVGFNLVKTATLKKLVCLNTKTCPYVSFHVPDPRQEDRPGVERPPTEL
Procedure: Simply, different concentrations of the test compound solution were added to the mixed solution containing COX-1/COX-2 enzyme (10 µL) and Assay Buffer (960 µL, 0.1 M Tris-HCl pH 8.0 containing 5 µM EDTA and 2 µM phenol). […] The IC50 values were calculated as described above.

[2] = system: NO production in RAW 264.7 macrophages; experiment: Measurement of LPS-induced NO production (Griess); assay type: cell-based, Murine; details: RAW264.7, 2 h pre-treatment (0–20 µM), LPS 200 ng/mL 24 h
Procedure: Murine RAW 264.7 macrophages were obtained from the American Type Culture Collection (ATCC, USA). The cells were incubated in DMEM media supplemented with 10% FBS, 100 U/mL penicillin and […] streptomycin at 37 °C with 5% CO2. The RAW 264.7 macrophages were inoculated at 96-well plates and were pre-treated with vehicle or 6n (0–20 µM dose range) for 2 h and then stimulated with LPS (200 ng/mL) for 24 h. NO concentration in the medium was determined using Griess reagent kit (Beyotime, China) at 540 nm with a microplate reader (MQX200, Bio-Tek, USA) and calculated the inhibition rate of NO.

IC50 (COX-1): 12.6 ± 0.79 µM
SMILES: COc1ccccc1CN1CCN(C(=O)c2ccccc2C(C)=O)CC1 [Compound 6n, 1–(2-(4–(2-Methoxybenzyl)piperazine-1-carbonyl)phenyl)ethan-1-one]
Swelling degree ([1]; mice, 5 mg/kg intragastric once a day for 6 days, ear slices weighed 24 h after DNFB challenge, Mean ± SD, n = 6): 8.8 ± 3.2 mg | Inhibition (%) of ear swelling ([1]; mice, 5 mg/kg intragastric once a day for 6 days, vs model group): 46.3% | in vivo inhibitory activity, in words ([1]; p.o. 5 mg/kg, p < 0.01): significant inhibitory activity | LPS-induced NO production [2]: reduced LPS-induced NO production in a dose-dependent manner
